Measured values published in patent US8735140B2, “Preservation and composition of bioprocess algae for production of lipids, seedstock, and feed” (Kuehnle AgroSystems, Inc., priority 2008, dated 2014).

Legend:
Dunaliella cells = assay: Trehalose loading of Dunaliella, shelf storage and recovery in fresh medium; assay type: cell-based, D. salina; conditions: 0.5 and 1.0 M trehalose
Experimental: First, cells in log phase are spun down at 1500×g for 10 minutes. Supernatant is decanted and the pellet is gently re-suspended in a minimal volume of medium and placed in a 1 L flask. The cell count of the slurry is 1.776×10^8 cells/ml. Next, four 50 ml tubes are prepared with aliquots of 21 ml of slurry in each tube prior to re-suspension, in a defined extracellular concentration of α-trehalose (α-D-glycosyl-α-D-glycosylpyranoside, Hayashibara Co., in Melis medium at a salinity of 1.0 M NaCl (referred to as 1M Melis). The cells are then spun down again and the pellets are re-suspended in 200 ml of treatment medium, that is, 1M Melis with or without added trehalose. The four preservation treatments in 1M Melis are performed in the following four sets in triplicate: no trehalose ([…]), 0.5M trehalose, 1.0M trehalose, and 2.0M trehalose. The cell density after re-suspension is at 1.865×10^7 cells/ml. During the re-suspension of cell pellets in 1M Melis, 2.0M trehalose, the pellet is not completely broken apart, yielding visible clumps in the suspension. After the re-suspension, cells are transferred to 250 ml flasks and left on the shelf at a temperature of 23-27° C. and light Intensity <5 μE/m^2-sec, without any agitation or aeration. […]

Chlorella (KAS603) = assay: Trehalose preservation, storage by air drying on paper disk; assay type: cell-based; conditions: for % Viability: 0M control = 100%; for Growth: final/initial density
Experimental: (§1) Flask cultures (40 ml) of cells are grown to mid-log phase with a density between 3×10^6 and 3×10^7 cells/ml, and are centrifuged. Culture medium is removed after centrifugation, resulting in more concentrated algae cells. Cells are then re-suspended in fresh medium and left overnight. Cells are centrifuged again the next day in order to remove the medium, and are then re-suspended in fresh or salt water without any nutrient. The cell density of the suspension is determined prior to storage under the various treatments. Cells in 40 ml flask cultures are grown to mid-log phase with a density of between 3×10^6 and 3×10^7 cells/ml, and are centrifuged. Culture medium is removed after centrifugation, resulting in more concentrated algae cells. Cells are then re-suspended in ideal glass solution consisting of fresh culture medium and trehalose at a concentration of 0.1M, 0.3M, and 0.5M (dihydrate trehalose 100 from Hayashibara Co. Ltd, Okayama, Japan), respectively, and left overnight with mild agitation. Cells are centrifuged again to remove the ideal glass solution the next day, and are re-suspended in fresh or salt water without any nutrient. The cell density of the resulting suspension is determined prior to storage under the various treatments. (Some cells were also treated with a 0.5M sorbitol solution). In one specific embodiment, algae cells can be stored under air-dry conditions using autoclaved sterilized filter paper disks (15 mm Whatman Grade 1, Fisher Scientific 09-805-1B). Specifically, after one piece of paper disk is placed into each well of BD Falcon 12-well tissue culture plates, 0.1 ml algae cell suspension is placed onto each disk. The liquid cell suspension is allowed to air dry in a laminar flow hood for 1 hour. After 1 hour, the plates are closed and placed under low light at ambient temperature. Algae stored under the above preservation conditions for 5 months can be subsequently rejuvenated by removing the paper disks from the 12-well plates and placing cells in 5 ml of fresh medium under light. Cell viability is determined by comparing the cell growth in control set with the experimental set. Specifically, cell counts are performed on all samples. The averaged density value (in cells per ml) for all the cultures after treatment is defined as “rejuvenation cell count.” In some samples, the percent recovery of cells immediately after storage is also determined. The formulae are illustrated as follows: Growth=(rejuvenation cell count)/(initial cell count) Cell recovery after storage=(cell density after storage)/(initial cell density), with controls set at 100% cell recovery. Viability after storage and rejuvenation in nutrient medium=(Growth of treatment)/(Growth of control)×100%, with controls set at 100% viability

Tetraselmis (KAS633) = assay: as above; assay type: cell-based; conditions: for % Viability: 0M control = 100%; for Growth: final/initial density
Experimental: as §1

algae cells = assay: Trehalose treatment, viability at room temperature under low light; assay type: cell-based
Experimental: Cells in 40 ml flask cultures are grown to mid-log phase with a density of between 3×10^6 and 3×10^7 cells/ml, and are centrifuged. Culture medium is removed after centrifugation, resulting in more concentrated algae cells. Cells are then re-suspended in ideal glass solution consisting of fresh culture medium and trehalose at a concentration of 0.1M, 0.3M, and 0.5M (dihydrate trehalose 100 from Hayashibara Co. Ltd, Okayama, Japan), respectively, and left overnight with mild agitation. Cells are centrifuged again to remove the ideal glass solution the next day, and are re-suspended in fresh or salt water without any nutrient. The cell density of the resulting suspension is determined prior to storage under the various treatments. (Some cells were also treated with a 0.5M sorbitol solution). Cell viability is determined by comparing the cell growth in control set with the experimental set. Specifically, cell counts are performed on all samples. The averaged density value (in cells per ml) for all the cultures after treatment is defined as “rejuvenation cell count.” In some samples, the percent recovery of cells immediately after storage is also determined. The formulae are illustrated as follows: Growth=(rejuvenation cell count)/(initial cell count) Cell recovery after storage=(cell density after storage)/(initial cell density), with controls set at 100% cell recovery. […]

[1] = 0.1M trehalose in F/2, 20 weeks storage in water (no nutrients)
[2] = 0.1M trehalose in F/2, 20 weeks storage
[3] = 0.3M trehalose in F/2, 20 weeks storage in water (no nutrients)
[4] = 0.3M trehalose in F/2, 20 weeks storage
[5] = 0.5M trehalose in F/2, 20 weeks storage in water (no nutrients)
[6] = 0.5M trehalose in F/2, 20 weeks storage

## OC[C@H]1O[C@H](O[C@H]2O[C@H](CO)[C@@H](O)[C@H](O)[C@H]2O)[C@H](O)[C@@H](O)[C@@H]1O [trehalose, α-D-glycosyl-α-D-glycosylpyranoside]
Dunaliella cells; 4.5-week period, FIG. 3
  Functional recovery: exhibit functional recovery
Dunaliella cells; 8-week period, no cell growth observed
  Functional recovery: negligible functional recovery
Chlorella (KAS603); [1]
  Cell colors on paper/in medium: Green/green
  Final density after storage and 3 weeks rejuvenation: 2.278 × 10^7 cells/ml
Chlorella (KAS603); [2]
  % Viability: (133%)
  Growth: 1.433
Chlorella (KAS603); [3]
  Final density after storage and 3 weeks rejuvenation: 4.440 × 10^7 cells/ml
Chlorella (KAS603); [4]
  % Viability: (144%)
  Growth: 1.55
Chlorella (KAS603); [5]
  Final density after storage and 3 weeks rejuvenation: 3.140 × 10^7 cells/ml
Chlorella (KAS603); [6]
  % Viability: (133)%
  Growth: 1.43
Tetraselmis (KAS633); [1]
  Cell colors on paper/in medium: Green/green
  Final density after storage and 3 weeks rejuvenation: 8.60 × 10^6 cells/ml
Tetraselmis (KAS633); [2]
  % Viability: (80%)
  Growth: 5.51
Tetraselmis (KAS633); [3]
  Final density after storage and 3 weeks rejuvenation: 2.15 × 10^6 cells/ml
Tetraselmis (KAS633); [4]
  % Viability: (19%)
  Growth: 1.32
Tetraselmis (KAS633); [5]
  Cell colors on paper/in medium: White/clear
  Final density after storage and 3 weeks rejuvenation: 1.915 × 10^6 cells/ml
Tetraselmis (KAS633); [6]
  % Viability: (16%)
  Growth: 1.10
Algae cells
  Period for which cells remain viable: at least 5 months
